What is called kinetic solubility is solubility judged after dilution from a stock solution rather than from solid.

The record followed here is PubChem BioAssay AID1996.

Values after ≈ are worked out from the molar mass of the structure shown.

The conditions of this series: buffer; pH 7.4; 200.0 µM.
For `CCc1ccc(N2CC(C)Cn3c2nc2c3c(=O)[nH]c(=O)n2C)cc1` (stereo unspecified), the kinetic solubility worked out at 7.3 µg/mL (≈ 21.5 µM). Take `COc1cc(OC)c(C(=O)OCC(=O)NC2CCCCCCC2)cc1OC`: the kinetic solubility is greater than 56.9 µg/mL. In the case of `Cc1onc(NC(=O)NC(=O)c2c(F)cccc2Cl)c1Br` it was 8.1 µg/mL (≈ 21.5 µM); in that of `C=CCn1cccc(C(=O)Nc2ccc(C)c(Cl)c2)c1=O`, less than 0.3 µg/mL.

The compound `Cc1cc(C)cc(NC(=O)Nc2cccnc2)c1` displayed a kinetic solubility greater than 36.2 µg/mL. The compound `CCOc1ccccc1NC(=O)c1ccc2ccccc2c1` showed a kinetic solubility of less than 0.6 µg/mL. For the compound `O=[N+]([O-])c1cccc(S(=O)(=O)NCCc2cn3ccccc3n2)c1`, the solubility (kinetic) was found to be 48.5 µg/mL (≈ 140 µM). Next, `O=C(NCCCn1ccnc1)c1ccc2ccccc2c1`: 34.8 µg/mL (≈ 125 µM).

`Cc1ccc2nc(N3CCCCC3)c(C=O)c(=O)n2c1` came in with a solubility (kinetic) of 39.1 µg/mL (≈ 144 µM). This solubility kinetic and that of the compound before are within 1.5-fold of each other. Next, `CC12CN3CC(C)(CN(C1)C3c1ccc(Cl)cc1)C2` (stereo unspecified): 30.9 µg/mL (≈ 112 µM); `CC(C)Cn1c(N)c(C(=O)COC(=O)c2cc3ccccc3cc2O)c(=O)n(C)c1=O`: 4.5 µg/mL (≈ 10.6 µM); `CC(NS(=O)(=O)c1ccc([N+](=O)[O-])cc1)C(=O)NN` (stereo unspecified): greater than 43.2 µg/mL. Regarding `Cc1noc(C(=O)Nc2ccc(F)c(Cl)c2)c1Cl`, the solubility (kinetic) came to 1.4 µg/mL (≈ 4.84 µM).

Consider `Cc1c(C(=O)OCC(=O)N2CCCC2)cccc1[N+](=O)[O-]`, for which the solubility (kinetic) is greater than 43.8 µg/mL. `COc1cccc(CNCCc2ccc3c(c2)OCO3)c1OC.O=C(O)C(=O)O` showed a kinetic solubility greater than 60.8 µg/mL. In turn, `Cc1ncc([N+](=O)[O-])n1CC(=O)N/N=C/c1ccccc1F` yielded a solubility (kinetic) greater than 45.8 µg/mL.

Compound `Fc1ccc2[nH]c3c(Cl)ncnc3c2c1` yielded a solubility (kinetic) of 7.9 µg/mL (≈ 35.6 µM). In the case of `O=C(NCc1ccccc1C(F)(F)F)C1CCC(=O)N(C2CC2)C1` (stereo unspecified) it was greater than 51.1 µg/mL. In the case of `CCc1cccc(NS(=O)(=O)c2ccc3c(c2)NC(=O)CC(=O)N3)c1` it was greater than 53.9 µg/mL.

With `CCOc1ccccc1OCCC(=O)Nc1ccc2c(c1)OCO2`, the kinetic solubility is greater than 49.4 µg/mL. In the case of `Cc1noc(C)c1C(=O)OCC(=O)Nc1ncc(Cl)c(C)c1Cl` it was greater than 53.7 µg/mL; in that of `Cc1ccc2c(c1)C1CN(C)CCC1N2S(=O)(=O)c1ccccc1F` (stereo unspecified), greater than 54.1 µg/mL.

Compound `Cc1ccc(NC(=O)CN(C)C(=O)c2ccccn2)cc1` registered a kinetic solubility greater than 42.5 µg/mL.

Turning to `CCOC(=O)CCn1cnc2ccc([N+](=O)[O-])cc2c1=O`, the solubility (kinetic) stood at 25.2 µg/mL (≈ 86.5 µM). In the case of `Cc1ccc(NC(=O)c2sccc2C)nc1` it was 34.8 µg/mL (≈ 150 µM); in that of `CC1CCN(C(=O)COC(=O)/C=C/c2ccc([N+](=O)[O-])cc2)CC1`, 5.7 µg/mL (≈ 17.2 µM); in that of `O=C(NCC1CCCO1)C1CC(=O)N(c2ccccc2)C1` (stereo unspecified), greater than 43.3 µg/mL.

Take `CN(Cc1ccccc1N1CCCC1)C(=O)c1cc2ccccc2o1`: the kinetic solubility worked out at 11.1 µg/mL (≈ 33.2 µM).

As for `Cc1ccc(-c2csc(NC(=O)CN3CCOCC3)n2)cc1`, the solubility (kinetic) was greater than 47.6 µg/mL. In the case of `Cc1cc(C)cc(OCC(=O)OCC(=O)NC2CC2)c1` it was greater than 41.6 µg/mL; in that of `Cn1c(=O)n(C)c2cc(NC(=O)COc3ccccc3)ccc21`, greater than 46.7 µg/mL. In the case of `O=C(CCS(=O)(=O)c1ccccc1Cl)NC1CCCCCC1` it was greater than 51.6 µg/mL; in that of `CC(=O)N1CCN=C1SCc1cccc(F)c1`, 36.5 µg/mL (≈ 145 µM); in that of `COC(=O)C1(C(C[N+](=O)[O-])c2ccco2)C(=O)NCC1c1ccccc1` (stereo unspecified), 11.1 µg/mL (≈ 31 µM). In the case of `COC(=O)c1sccc1-c1ccc(/C=N/OC(=O)c2cccs2)o1` it was less than 0.8 µg/mL; in that of `COc1ccccc1CNC(=O)c1oc2ccccc2c1C`, 9.8 µg/mL (≈ 33.2 µM). Regarding `NC(=O)c1ccsc1NC(=O)CSc1ncnc2sccc12`, the solubility (kinetic) came to 6 µg/mL (≈ 17.1 µM). This solubility kinetic is about 1.6-fold lower than that of the compound before. The compound `COc1ccc2c(COC(=O)CNS(=O)(=O)c3ccccc3)cc(=O)oc2c1` yielded a kinetic solubility of 46 µg/mL (≈ 114 µM).

For the compound `CC(C)(C)c1ccc(C(=O)NCC(=O)N2CCNC(=O)C2)cc1`, the solubility (kinetic) is greater than 47.6 µg/mL. In the case of `Cc1nc2ccccc2c(=O)n1CCc1ccc(O)cc1` it was greater than 42 µg/mL; in that of `CC(C)CC1(C)NC(=O)N(CC(=O)Nc2ccc3c(c2)CCC3)C1=O` (stereo unspecified), greater than 51.5 µg/mL; in that of `O=C(Nc1ccccc1F)N1CCc2ccccc2C1`, greater than 40.5 µg/mL. On to `O=C(Nc1cccc(S(=O)(=O)NC2=NCCC2)c1)c1ccccc1F`, for which the kinetic solubility was greater than 54.2 µg/mL.

`CCn1cnc2cc(NC(=O)c3ccc(C)cc3)ccc21` returned a solubility (kinetic) greater than 41.9 µg/mL.

As for `O=S(=O)(Nc1ccccc1N1CCCCC1)c1cccs1`, the kinetic solubility was found to be 1.2 µg/mL (≈ 3.72 µM). `Cc1ccc(C)c(C(=O)NC(C)CCc2ccccc2)c1` (stereo unspecified) came in with a solubility (kinetic) of 0.7 µg/mL (≈ 2.49 µM). This solubility kinetic lies about 1.7-fold lower than the previous one. In the case of `O=C(NC12CC3CC(CC(C3)C1)C2)N1CCN(c2ccccc2)CC1` it was 12.7 µg/mL (≈ 37.4 µM); in that of `Cc1noc(C)c1C(=O)Nc1cccc2ncccc12`, greater than 40.1 µg/mL; in that of `Cc1ccc(Nc2cc(C)c3ccc(O)cc3n2)cc1C.Cl`, 11.1 µg/mL. Next, `CC(=O)NCCc1nc2cc(NC(=O)c3ccc(F)cc3)ccc2n1C`: greater than 53.2 µg/mL; `Cc1ccc(N2CC(C(=O)Nc3ccc4c(c3)OCO4)CC2=O)cc1C` (stereo unspecified): 1.8 µg/mL (≈ 5.11 µM).
